Data taken from ChEMBL document CHEMBL1909046, “DrugMatrix in vitro pharmacology data”.

Key:
[1] = target: T1, C-C chemokine receptor type 4 (Homo sapiens, UniProt P51679); format: cell membranes, Membrane; conditions: chem-1
T1 sequence (P51679 whole entry): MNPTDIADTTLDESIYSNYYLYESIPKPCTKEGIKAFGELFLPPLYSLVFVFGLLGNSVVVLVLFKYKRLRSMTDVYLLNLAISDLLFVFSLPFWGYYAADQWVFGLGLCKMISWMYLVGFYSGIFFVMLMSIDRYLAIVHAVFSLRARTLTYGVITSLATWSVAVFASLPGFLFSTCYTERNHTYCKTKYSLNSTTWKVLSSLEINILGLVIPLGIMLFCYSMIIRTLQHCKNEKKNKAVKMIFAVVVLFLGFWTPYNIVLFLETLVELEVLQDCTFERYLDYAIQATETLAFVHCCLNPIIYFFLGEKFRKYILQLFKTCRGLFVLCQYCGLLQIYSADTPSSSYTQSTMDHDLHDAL

[2] = target: Vasopressin V1a receptor (Homo sapiens, UniProt P37288); format: cell membranes, Membrane; conditions: hek293
Chain of Vasopressin V1a receptor (P37288 whole entry): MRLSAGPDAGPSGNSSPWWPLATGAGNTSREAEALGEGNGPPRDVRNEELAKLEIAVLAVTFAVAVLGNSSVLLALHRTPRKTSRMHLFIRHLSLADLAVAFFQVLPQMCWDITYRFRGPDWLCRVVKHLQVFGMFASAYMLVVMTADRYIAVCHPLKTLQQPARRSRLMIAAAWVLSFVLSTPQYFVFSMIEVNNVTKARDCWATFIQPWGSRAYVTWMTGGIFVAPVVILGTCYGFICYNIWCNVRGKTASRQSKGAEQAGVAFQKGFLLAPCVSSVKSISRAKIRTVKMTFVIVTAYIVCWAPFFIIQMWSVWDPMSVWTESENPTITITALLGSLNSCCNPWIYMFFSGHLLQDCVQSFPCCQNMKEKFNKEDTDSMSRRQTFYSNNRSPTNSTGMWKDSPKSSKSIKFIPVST

[3] = target: Glycine receptor (Rattus norvegicus, UniProt P22771+P24524+P07727+P20781); format: cell membranes, Wistar, Spinal cord, Membrane
[4] = target: 5-hydroxytryptamine receptor 4 (Cavia porcellus, UniProt O70528); format: cell membranes, Dunkin-Hartley, Striatum, Membrane
Chain of 5-hydroxytryptamine receptor 4 (O70528 whole entry): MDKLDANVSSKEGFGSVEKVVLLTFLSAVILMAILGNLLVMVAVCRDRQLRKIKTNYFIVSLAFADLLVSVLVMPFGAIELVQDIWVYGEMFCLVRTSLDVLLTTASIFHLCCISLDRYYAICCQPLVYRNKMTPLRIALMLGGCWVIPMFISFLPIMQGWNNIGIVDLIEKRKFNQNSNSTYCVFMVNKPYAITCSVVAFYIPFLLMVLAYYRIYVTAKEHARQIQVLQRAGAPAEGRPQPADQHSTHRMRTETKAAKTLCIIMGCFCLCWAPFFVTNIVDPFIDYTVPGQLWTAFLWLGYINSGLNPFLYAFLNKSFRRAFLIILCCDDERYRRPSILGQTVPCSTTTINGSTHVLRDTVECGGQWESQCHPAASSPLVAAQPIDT

[5] = target: Estrogen receptor beta (Homo sapiens, UniProt Q92731); conditions: sf9
Chain of Estrogen receptor beta (Q92731 whole entry): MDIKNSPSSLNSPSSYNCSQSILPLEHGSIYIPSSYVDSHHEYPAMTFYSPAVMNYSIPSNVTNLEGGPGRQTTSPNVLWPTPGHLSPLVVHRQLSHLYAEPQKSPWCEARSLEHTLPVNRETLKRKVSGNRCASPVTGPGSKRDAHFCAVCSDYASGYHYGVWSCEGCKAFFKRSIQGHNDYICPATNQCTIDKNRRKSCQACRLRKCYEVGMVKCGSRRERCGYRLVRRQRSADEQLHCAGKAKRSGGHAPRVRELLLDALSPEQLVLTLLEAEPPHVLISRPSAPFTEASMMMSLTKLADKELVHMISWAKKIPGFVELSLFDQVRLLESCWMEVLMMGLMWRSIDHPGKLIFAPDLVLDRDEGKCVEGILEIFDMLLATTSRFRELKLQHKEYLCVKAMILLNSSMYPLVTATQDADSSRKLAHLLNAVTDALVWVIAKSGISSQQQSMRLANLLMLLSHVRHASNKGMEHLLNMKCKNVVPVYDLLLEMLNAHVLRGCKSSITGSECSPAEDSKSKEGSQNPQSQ

[6] = target: T2, Thromboxane-A synthase (Homo sapiens, UniProt P24557); experiment: biochemical; format: tissue-based, Platelet;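 note: enzyme inhibition assay with PGH2 supplied as substrate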
T2 sequence (P24557 whole entry): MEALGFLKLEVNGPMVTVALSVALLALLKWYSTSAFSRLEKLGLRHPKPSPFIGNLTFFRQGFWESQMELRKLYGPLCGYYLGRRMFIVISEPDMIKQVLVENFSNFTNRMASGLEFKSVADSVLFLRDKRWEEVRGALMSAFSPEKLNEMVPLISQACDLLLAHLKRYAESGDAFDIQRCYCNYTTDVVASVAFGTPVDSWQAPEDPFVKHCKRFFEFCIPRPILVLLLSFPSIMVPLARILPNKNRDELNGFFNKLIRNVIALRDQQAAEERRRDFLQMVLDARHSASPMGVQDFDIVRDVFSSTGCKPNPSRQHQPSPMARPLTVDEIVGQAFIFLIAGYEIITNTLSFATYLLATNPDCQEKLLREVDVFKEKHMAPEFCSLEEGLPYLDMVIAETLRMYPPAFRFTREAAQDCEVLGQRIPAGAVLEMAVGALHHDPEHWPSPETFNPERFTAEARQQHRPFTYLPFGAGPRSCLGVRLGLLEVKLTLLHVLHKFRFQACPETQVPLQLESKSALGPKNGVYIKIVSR

[7] = target: Protein phosphatase 3 catalytic subunit alpha (Homo sapiens, UniProt Q08209); set-up: species or system Escherichia coli;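 note: inhibition of calcineurin (PP2B) enzyme activity, measured with DiFMUP as the substrate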
Note: in other assays of this panel Not Active means under 50% inhibition at 10 µM.

Row | Compound | IC50 [1] | IC50 [2] | IC50 [3] | IC50 [4] | IC50 [5] | IC50 ([6]; platelet) | IC50 [7] | IC50 ([6]; read-out: IC50) [nM] | IC50 ([4]; read-out: IC50) [nM] | Ki ([4]; read-out: Ki) [nM] | Ki [1] | Ki [2] | Ki [3] | Ki [4] | Ki [5] | Ki ([6]; platelet) | Ki [7]
1 | CCCCC(=O)N(Cc1ccc(-c2ccccc2-c2nnn[nH]2)cc1)[C@H](C(=O)O)C(C)C | Not Active | Not Active | Not Active | Not Active | Not Active | Not Active | Not Active | – | – | – | – | – | – | – | – | – | –
2 | O=C(O)COc1ccc(C(=O)c2cccs2)c(Cl)c1Cl | Not Active | Not Active | Not Active | Not Active | Not Active | Not Active | Not Active | – | – | – | – | – | – | – | – | – | –
3 | CN1[C@@H]2CC[C@H]1C[C@@H](OC(c1ccccc1)c1ccccc1)C2 [BENZTROPINE] | Not Active | Not Active | Not Active | Not Active | Not Active | Not Active | Not Active | – | – | – | – | – | – | – | – | – | –
4 | C[C@@](Cc1ccc(O)c(O)c1)(NN)C(=O)O.O [CARBIDOPA] | Not Active | Not Active | Not Active | Not Active | – | Not Active | Not Active | – | – | – | – | – | – | – | – | – | –
5 | CN1CCN(C2=Nc3cc(Cl)ccc3Nc3ccccc32)CC1 [CLOZAPINE] | Not Active | Not Active | Not Active | Not Active | Not Active | Not Active | Not Active | – | – | – | – | – | – | – | – | – | –
6 | CC(C)NC[C@@H](O)COc1cccc2ccccc12 [DEXPROPRANOLOL] | Not Active | Not Active | Not Active | Not Active | Not Active | Not Active | Not Active | – | – | – | – | – | – | – | – | – | –
7 | CC(C)NC[C@H](O)COc1cccc2ccccc12 [LEVOPROPRANOLOL] | Not Active | Not Active | Not Active | Not Active | Not Active | Not Active | Not Active | – | – | – | – | – | – | – | – | – | –
8 | O=C(O)CCCCC1CCSS1 (stereo not drawn) [LIPOIC ACID, ALPHA] | Not Active | Not Active | Not Active | Not Active | Not Active | Not Active | Not Active | – | – | – | – | – | – | – | – | – | –
9 | CN(C)C(=O)C(CCN1CCC(O)(c2ccc(Cl)cc2)CC1)(c1ccccc1)c1ccccc1 [LOPERAMIDE] | Not Active | Not Active | Not Active | Not Active | Not Active | Not Active | Not Active | – | – | – | – | – | – | – | – | – | –
10 | Clc1ccc(COC(Cn2ccnc2)c2ccc(Cl)cc2Cl)c(Cl)c1 (stereo not given) [MICONAZOLE] | Not Active | Not Active | Not Active | Not Active | Not Active | – | Not Active | 263 | – | – | – | – | – | – | – | – | –
11 | Oc1ccc2c3c1O[C@H]1[C@@H](O)CC[C@@]4(O)[C@@H](C2)N(CC2CCC2)CC[C@]314 [NALBUPHINE] | Not Active | Not Active | Not Active | Not Active | Not Active | Not Active | Not Active | – | – | – | – | – | – | – | – | – | –
12 | C[C@]12C=CC(=O)C=C1CC[C@@H]1[C@@H]2C(=O)C[C@@]2(C)[C@H]1CC[C@]2(O)C(=O)CO [PREDNISONE] | Not Active | Not Active | Not Active | Not Active | Not Active | Not Active | Not Active | – | – | – | – | – | – | – | – | – | –
13 | OCCOCCN1CCN(C2=Nc3ccccc3Sc3ccccc32)CC1 [QUETIAPINE] | Not Active | Not Active | Not Active | Not Active | Not Active | Not Active | Not Active | – | – | – | – | – | – | – | – | – | –
14 | COC(=O)[C@H]1[C@H]2C[C@@H]3c4[nH]c5cc(OC)ccc5c4CCN3C[C@H]2C[C@@H](OC(=O)c2cc(OC)c(OC)c(OC)c2)[C@@H]1OC [RESERPINE] | Not Active | Not Active | Not Active | Not Active | – | Not Active | Not Active | – | – | – | – | – | – | – | – | – | –
15 | O=C(O)c1ccccc1O [SALICYLIC ACID] | Not Active | Not Active | Not Active | Not Active | – | Not Active | Not Active | – | – | – | – | – | – | – | – | – | –
16 | C[S+]([O-])c1ccc(-c2nc(-c3ccncc3)c(-c3ccc(F)cc3)[nH]2)cc1 (stereo not given) [SB-203580] | Not Active | Not Active | Not Active | – | Not Active | – | Not Active | – | 10600 | 1760 | – | – | – | – | – | – | –
17 | CC1CCC(NC(=O)N(CCCl)N=O)CC1 (stereo not given) [SEMUSTINE] | Not Active | Not Active | Not Active | Not Active | Not Active | Not Active | Not Active | – | – | – | – | – | – | – | – | – | –
18 | O=C1C[C@@H]2OCC=C3CN4CC[C@]56c7ccccc7N1[C@H]5[C@H]2[C@H]3C[C@H]46 [STRYCHNINE] | Not Active | Not Active | – | Not Active | – | Not Active | Not Active | – | – | – | – | – | – | – | – | – | –
19 | C[N+](C)(C)CCOC(=O)CCC(=O)OCC[N+](C)(C)C.[Cl-].[Cl-] [SUCCINYLCHOLINE CHLORIDE] | Not Active | Not Active | Not Active | Not Active | Not Active | Not Active | Not Active | – | – | – | – | – | – | – | – | – | –
20 | Nc1ccc(S(=O)(=O)NC(=O)c2ccccc2)cc1 [SULFABENZAMIDE] | Not Active | Not Active | Not Active | Not Active | Not Active | Not Active | Not Active | – | – | – | – | – | – | – | – | – | –
21 | CCCCCCCCNC(C)C(O)c1ccc(SC(C)C)cc1 (stereo not given) [SULOCTIDIL] | Not Active | Not Active | Not Active | Not Active | Not Active | Not Active | Not Active | – | – | – | – | – | – | – | – | – | –
22 | O=c1[nH]c(=O)n(C2CCCO2)cc1F (stereo not given) [TEGAFUR] | Not Active | Not Active | Not Active | Not Active | Not Active | Not Active | Not Active | – | – | – | – | – | – | – | – | – | –
23 | CC(=N)S [THIOACETAMIDE] | Not Active | Not Active | Not Active | Not Active | Not Active | Not Active | Not Active | – | – | – | – | – | – | – | – | – | –
24 | Cc1ccc(C(=O)c2ccc(CC(=O)O)n2C)cc1 [TOLMETIN] | Not Active | Not Active | Not Active | Not Active | Not Active | Not Active | Not Active | – | – | – | – | – | – | – | – | – | –
25 | CC(=O)OCC(COC(C)=O)OC(C)=O [TRIACETIN] | – | Not Active | Not Active | Not Active | Not Active | Not Active | Not Active | – | – | – | Not Active | – | – | – | – | – | –
26 | CN1CCN(CCCN2c3ccccc3Sc3ccc(C(F)(F)F)cc32)CC1 [TRIFLUOPERAZINE] | – | Not Active | Not Active | Not Active | Not Active | Not Active | Not Active | – | – | – | Not Active | – | – | – | – | – | –
27 | TRANSPLATIN | Not Active | Not Active | Not Active | Not Active | Not Active | Not Active | Not Active | – | – | – | Not Active | Not Active | Not Active | Not Active | Not Active | Not Active | Not Active
28 | ZIRCONIUM(IV) CHLORIDE | Not Active | Not Active | Not Active | Not Active | Not Active | Not Active | Not Active | – | – | – | Not Active | Not Active | Not Active | Not Active | Not Active | Not Active | Not Active
